# Reference: patent US20230181569A1, “COMPOSITIONS AND METHODS TO TREAT POLYCYSTIC KIDNEY DISEASE” (Board of Supervisors of Louisiana State University and …, priority 2020, published 2023)
# Where two headings read alike, the source gives them in different places.
# Legend:
# Sprague-Dawley rats = conditions: cited from earlier work; for urine output: Sprague-Dawley rats; for sedation and hyperphagia: rat, in vivo
# [1] = in vivo; cited from earlier work
# Pkd1 RC/RC mice = assay: Chronic daily oral gavage of KOA in Pkd1 RC/RC mice (Example 1, Studies 1 and 2); format: in vivo; conditions: daily oral gavage 4 or 8 weeks; for fibrosis area in the kidney / serum creatinine and blood urea levels / cyst size and numbers: Pkd1 RC/RC mice; for cyst size and numbers: 5 mg/kg JT-09 or 100 µg/kg nalfurafine; for GFR: mice with PKD
# Method: Pkd1 RC/RC mice were used as the polycystic kidney disease model. 12 weeks old mice were given a KOA treatment (JT-09 or nalfurafine) or a vehicle at a dose of 5 mg/kg for JT-09 or 100 µg/kg for nalfurafine daily for 4 or 8 weeks.
# Group 1: Pkd1 RC/RC mice + treatment (JT09 or nalfurafine) oral gavage (5 mg/kg for JT-09 or 100 µg/kg for nalfurafine) daily. n=24
# Group 2: Pkd1 RC/RC mice + vehicle oral gavage daily. n=24
# At 16 weeks old, 12 mice from both groups 1 and 2 were selected. These mice were each placed in a metabolic cage to collect urine for three 24-hour periods (a total of 72 hours). Each mouse was placed in a separate metabolic cage, as opposed to all mice in a single metabolic cage. Daily water intake for each mouse is also recorded. Mice were then deep anesthetized, and blood was be taken from their artery. Mice were then sacrificed. Both kidneys were perfused with PBS and fixed in neutral buffered formalin. Kidneys were processed for paraffin embedding and sectioning. H&E and picrosirus stain were performed on each section. Cystic index including cysts size and number were evaluated by a pathologist. Fibrosis was evaluated by the pathologist as well; in addition, a fibrotic score was given. The serum creatinine and blood urea level in the blood was then measured.
# At 20 weeks old, the other set of 12 mice in both groups was then sacrificed and the same experiment was be performed as described herein.
# At 16 weeks old, 12 mice from each group were anesthetized. The right jugular vein was catheterized for inulin infusion, and the bladder was catheterized for urine collection. GFR was evaluated based on the excretion rate of FITC-sinistrin.
# At 20 weeks old, the same GFR measure was be repeated on the other 12 mice from each group.
# [2] = cited from earlier work
# Pkd1^RC/RC mice = assay: Acute oral gavage of nalfurafine, urine output in PKD mice; format: in vivo
# Method: Volume expansion, give mice saline at the dose of 20 ml/kg. (b) dose responsive curve of nalfurafine in Pkd1^RC/RC mice. Y axis, accumulative urine output of 5 hours after dosing. n=7-10 in each group.
# ADPKD patients have an elevated level of vasopressin. Based on this observation, tolvaptan was discovered and later approved by its mechanism of action of blocking V2 receptors on the distal tubules. However, this also leads to the side effect of polyuria and severe thirst. […] Therefore, the long-term effects by nalfurafine on urine output can be limited unlike tolvaptan.
# Therefore, we will give PKD mice nalfurafine daily at the maximum responsive dose 240 ug/kg/day for chronic studies in both Aim 1 and Aim 2 to obtain the greatest benefits.
# kappa receptors = kappa receptors (Homo sapiens, UniProt P41145); conditions: cited from earlier work
# affected skin = conditions: atopic dermatitis and pruritus; cited from earlier work
# patients [3] = conditions: cited from earlier work
# Sprague Dawley rats = assay: Stability of drug dissolved in drinking water, read out as urine output in rats; format: in vivo
# Method: Day 1, the fresh made drug was given to rats. Day 4, the drug made on day 1 was given to the same rats. Veh, vehicle; Nal, nalfurafine. n=3 for each group.
# Route of administration: Drug will be given orally in drinking water. We have performed a study to test the stability of the drug. […] We then left this water bottle at room temperature for three days, and we then gave this water to the same rats again. […] Therefore, the drug is stable for 3 days when it is dissolved in water at room temperature. We will make fresh nalfurafine in drinking water every 3 days in the chronic studies in both Aim 1 and Aim 2. We will give another group of mice the standard care of tolvaptan to serve as comparison of the treatment.
# WT mice = assay: Oral gavage of nalfurafine, urine output in wild type mice; format: in vivo
# Method: The dose volume is 20 ml/kg.
# Polycystic kidney disease (PKD) affects one person in every 400 to 1000 people in the U.S., which is associated with substantial mortality. […] There is no cure for PKD, and currently only one treatment is available to delay progression: tolvaptan, a vasopressin V2 receptor antagonist. This drug is expensive and indicated only in some patients who are at high risk for progression. The efficacy of tolvaptan proves that an active vasopressin pathway plays a critical role in this disease progression. However, the drug carries risk of severe hepatic toxicity, and patients treated with tolvaptan are suffering serious side effects, such as severe thirst and polyuria due to inhibition of V2 receptor in the distal nephrons. […] In addition to their inhibitory effect on vasopressin secretion and subsequent diuretic effect, KOAs can produce an anti-inflammatory micro-environment at the cellular level, which protects cardiac tissue from fibrosis.
# patients [4] = conditions: patients treated with tolvaptan; cited from earlier work
# [5] = cited from earlier work; remark: listed apart in the source
# patients [6] = conditions: human trials; cited from earlier work
# conscious rats = conditions: cited from earlier work
# [7] = i.c.v. or i.v. infusion, conscious rats
# Sequence of kappa receptors (P41145 whole entry): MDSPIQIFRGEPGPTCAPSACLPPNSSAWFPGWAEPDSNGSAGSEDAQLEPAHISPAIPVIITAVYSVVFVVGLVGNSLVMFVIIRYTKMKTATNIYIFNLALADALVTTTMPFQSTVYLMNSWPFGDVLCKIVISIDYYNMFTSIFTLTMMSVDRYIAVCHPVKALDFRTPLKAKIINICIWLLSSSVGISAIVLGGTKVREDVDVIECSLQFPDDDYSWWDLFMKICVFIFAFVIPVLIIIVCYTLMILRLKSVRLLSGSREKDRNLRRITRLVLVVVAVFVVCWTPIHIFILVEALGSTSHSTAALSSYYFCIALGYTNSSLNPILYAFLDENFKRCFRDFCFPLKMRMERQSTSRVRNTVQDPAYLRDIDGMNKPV
compound,measurement,setting,value
CC(C)C1CCC(N2CCC(N3C(=O)C(=O)c4ccccc43)CC2)CC1 (centres unmarked) [AT-090],urine output,Sprague-Dawley rats,increase urine output
same,sedation and hyperphagia,Sprague-Dawley rats,sedation and hyperphagia
CC(C)C1CCC(N2CCC(N3C(=O)/C(=N\O)c4ccccc43)CC2)CC1 (centres unmarked) [AT-127],urine output,Sprague-Dawley rats,increase urine output
same,sedation and hyperphagia,Sprague-Dawley rats,sedation and hyperphagia
CC(C)C1CCC(N2CCC(n3c(CO)c(CO)c4ccccc43)CC2)CC1 (centres unmarked) [AT-390],urine output,Sprague-Dawley rats,increase urine output
CNC(=O)CC1C(=O)N(C2CCN(C3CCC(C(C)C)CC3)CC2)c2ccccc21 (centres unmarked) [AT-403],urine output,Sprague-Dawley rats,increase urine output
same,sedation and hyperphagia,Sprague-Dawley rats,sedation and hyperphagia
CCCC[C@@H](NC(=O)[C@@H](Cc1ccccc1)NC(=O)[C@H](N)Cc1ccccc1)C(=O)N[C@H](CCCCN(C)C)C(=O)NCc1ccncc1 [JT09],serum creatinine levels,[1],reduces serum creatinine levels
same,urine output,[1],increases urine output
same,fibrosis area in the kidney,Pkd1 RC/RC mice,reduce fibrosis area in the kidney
same,serum creatinine and blood urea levels,Pkd1 RC/RC mice,decrease serum creatinine and blood urea levels
same,cyst size and numbers,Pkd1 RC/RC mice,decrease cyst size and numbers
same,GFR,Pkd1 RC/RC mice,improve GFR
CN(C(=O)/C=C/c1ccoc1)[C@@H]1CC[C@@]2(O)[C@H]3Cc4ccc(O)c5c4[C@@]2(CCN3CC2CC2)[C@H]1O5 [nalfurafine],half life,[2]; healthy volunteers,8 h
same,half life,[2]; hemodialysis patients,10 to 15 h
same,dose dependence of the increase in urine output,"Pkd1^RC/RC mice; Pkd1^RC/RC mice, accumulative urine output of 5 hours after dosing",dose dependent
same,dose with the greatest increase in 5-hour urine output,"Pkd1^RC/RC mice; Pkd1^RC/RC mice, doses of 100, 130, 180, 240 and 320 ug/kg",0.24 mg/kg
same,highest effective dose in acute study,Pkd1^RC/RC mice; acute study,0.24 mg/kg
same,urine output compared with vehicle treatment,"Pkd1^RC/RC mice; oral administration, mice with PKD, within the 3 hours after dosing (FIG. 24a: 240 ug/kg)",significant increase in urine output
same,selectivity for kappa receptors,kappa receptors,highly selective for kappa receptors
same,infiltration of CD4+ and CD8+ T cells,affected skin,reduced infiltration of CD4+ T cells and CD8+ T cells in the affected skin
same,polyuria as a side effect,patients [3]; clinical trials of nalfurafine,none of the clinical trials of nalfurafine have reported polyuria
same,"CNS-mediated side effects of traditional opioids (nausea/vomiting, sedation, respiratory depression, abuse potential, addiction, euphoria)","patients [3]; human, in vivo",does not produce the CNS-mediated side effects
same,extreme thirst and polyuria,patients [3]; one year post-marketing surveillance study,does not cause extreme thirst nor polyuria
same,"insomnia (worst side effect), share of patients","patients [3]; post marketing analysis of 3,762 patients",approximately 3%
same,fibrosis area in the kidney,Pkd1 RC/RC mice,reduce fibrosis area in the kidney
same,serum creatinine and blood urea levels,Pkd1 RC/RC mice,decrease serum creatinine and blood urea levels
same,cyst size and numbers,Pkd1 RC/RC mice,decrease cyst size and numbers
same,GFR,Pkd1 RC/RC mice,improve GFR
same,diuresis after fresh drug dissolved in water,"Sprague Dawley rats; rats, first day, 30 ug/kg single dose",produced diuresis
same,"magnitude of increase in urine output, day 4 versus day 1","Sprague Dawley rats; same rats, drug solution kept at room temperature for three days",the same on day 4 as it was on day 1
same,stability when dissolved in water at room temperature,"Sprague Dawley rats; water, room temperature",3 days
same,behavioral or adverse effects,"WT mice; mouse, in vivo",does not produce any apparent behavioral or adverse effects
same,urine output,"WT mice; oral gavage, wild type mice",marked increase in urine output
Cc1ccccc1C(=O)Nc1ccc(C(=O)N2CCCC(O)c3cc(Cl)ccc32)c(C)c1 (centres unmarked) [tolvaptan],undesirable side effects,patients [4],"severe thirst, polyuria and hepatic toxicity"
same,water solubility,[5],poor water solubility
"Ac—Arg—Tyr—Tyr—Arg—Trp—Lys—Lys—Lys—Lys—Lys—Lys—Lys—NH2 (Ac-RYYRWKKKKKKK-NH2) [ZP120, peptide NOP receptor partial agonist]",blood pressure,patients [6],efficacious in lowering blood pressure
"nociceptin (FGGFTGARKSARKLANQ; Nociceptin; UniProt Q13519 130-146, looked up) [17 amino acid peptide, classical ligand of the nociceptin opioid peptide receptor]",circulating levels of vasopressin,conscious rats; administered centrally,reduces circulating levels of vasopressin
same,"blood pressure, heart rate and peripheral sympathetic nerve activity",conscious rats; centrally (i.c.v.) or at high doses peripherally (i.v. bolus or infusion),"decreases blood pressure, heart rate and peripheral sympathetic nerve activity"
same,urinary sodium excretion,conscious rats; [7],decrease in urinary sodium excretion
same,urine flow rate,conscious rats; [7],marked increase in urine flow rate
